Results from patent publication US20030118584A1, “Restoration of platelet aggregation by antibody administration after GPIIB/IIIa antagonist treatment” (G.D. Searle & Co., priority 1998, published 2003).

What was measured:
GPIIb/IIIa = GPIIb/IIIa (Homo sapiens, UniProt P05106+P08514); details: when administered; cited from earlier work
[1] = Elimination of compounds B and D from the circulation; format: in vivo; details: for Route of removal from the circulation: in vivo; for Change in elimination half-life with decreased creatinine clearance: renal impairment
Description: In renally impaired patients, reversal of the functionality of these compounds would be especially useful in an emergency situation where rapid removal of active compound is desired.

[2] = test system: heparinized human whole blood; assay: Activated clotting time (ACT) in heparinized human whole blood; format: cell-based; details: 1.4 Units/mL heparin; varying concentrations; FIG. 1
Description: This process can be used to calculate a standardized concentration curve for various known concentrations of anti-platelet compounds. The process can also be used to measure activated clotting times for use in calculating the ACT number for the processes of the invention.
A. Blood was drawn from a human volunteer into a syringe containing heparin. The heparin to whole blood ratio was 1:10 such that the final concentration of heparin in the syringe was 1.4 Units/mL.
B. The Hemochron™-8000 was set up to run ACT using the P-215 tubes from the same manufacturer (International Technidyne).
A. A 1 mL sample of the above heparinized blood was admixed and maintained (incubated) with 2.5-10 μl of antagonist compound or saline for 5 minutes at room temperature.
B. The Hemochron™ was started as 400 μl of the test sample was pipetted into the P-215 tube. The tube contents were gently mixed, placed into the Hemochron™ and turned one revolution until the light on the instrument came on.
C. Step B was repeated for the second channel of the instrument within 30 seconds to give an average activated clotting time. […]
The activated clotting time was first measured (in seconds) for control whole blood from each donor containing only 1.4 Units/mL of heparin. The clotting times were then measured as in Example 1 by varying concentrations of antiplatelet compounds B and D in addition to heparin for each donor. […]

platelet aggregation = test system: platelet aggregation; set-up: dose or concentration left out as unconfirmed; details: anesthetized dogs; for up to 210 minutes; cited from earlier work
[3] = Plasma half-life of compound B in guinea pig; format: in vivo
Procedure: Therefore, follow-up studies were conducted in dogs because the half-life of compounds B in this species is more similar to the human half-life than is the half-life in the guinea pig.
The half life of compound B was determined by fitting the plasma concentrations and determining the elimination rate constant ke. The half-life is calculated as t½=0.693/ke.

[4] = Total and free plasma levels of compound B in dog (HPLC); format: in vivo; details: throughout the three bolus infusions of Mab 9F7, FIG. 11
Procedure: In a second study, a dog was treated with a capsule of 10 mg of compound A, BID for 4 days (15 mg on day 3) prior to antibody testing. […] Four hours after the last oral dose of compound A, a dose of pentobarbitol and the monoclonal […] antibody (P187-9F7) was infused by a i.v. bolus injection. Each bolus contained a 5-fold molar excess over drug plasma levels (about 50 mg of Mab 9F7). A control dog was given identical amounts of antibody without compound A oral dosing. Blood samples were collected for aggregation assays at 5, 15, 30 and 60 minutes after each bolus administration of antibody, plasma levels of Mab 9F7, and total and free plasma levels of compound B.
This method involves the extraction of compound B and an internal standard (compound F, shown hereinafter) from acidified dog plasma with a C18 solid phase extraction column. Analysis is by reverse phase high performance liquid chromatography with fluorescence detection. […] Quality control pools were prepared in dog plasma and quantified using the human calibration curve. A linear weighted (1/concentration squared) least squares regression analysis was used to quantify samples. This method was validated with a minimum quantifiable level of 1.00 ng/mL. […]
Removed the samples to be analyzed from the freezer and thawed. […] The filtrate was then analyzed by the method given below. […]

Compound | Effect on activated clotting times (GPIIb/IIIa) | Route of removal from the circulation [1] | Change in elimination half-life with decreased creatinine clearance [1] | Effect of antiplatelet compound concentration on activated clotting time [2] | Inhibition of platelet aggregation, measured ex vivo (platelet aggregation) | Half-life [3] | Levels of total compound B (free plus antibody bound) [4]
C7E3: anti-GPIIb/IIIa antibody (Centocor) | increase of activated clotting times | – | – | – | – | – | –
N=C(N)c1ccc(N2CC[C@H](NC(=O)NCCC(=O)O)C2=O)cc1 [compound D, 3-[[[[1-[4-(aminoiminomethyl)phenyl]-2-oxo-pyrrolidin-3S-yl]amino]carbonyl]amino]propanoic acid] | – | almost exclusively by the kidney | appreciable increases | directly affect the activated clotting time | – | – | –
cyclic [D-2-aminobutyryl-N2-methyl-L-arginyl-glycyl-L-aspartyl-3-aminomethyl-benzoic acid] methanesulfonic acid salt [DMP728] | – | – | – | – | nearly complete inhibition | – | –
C#C[C@H](CC(=O)O)NC(=O)CCC(=O)Nc1ccc(C(=N)N)cc1 [compound B, 3S-[[4-[[4-(aminoiminomethyl)phenyl]amino]-1,4-dioxobutyl]amino]-4-pentynoic acid] | – | almost exclusively by the kidney | appreciable increases | directly affect the activated clotting time | – | short half-life | increased throughout the three infusions
